Results published in patent EP4685153A1 (priority 2023, dated 2024).
Residues, ends and D or L forms follow the SMILES beside them. *: point of attachment. Succinyl(4-O-cholesteryl) = CC(C)CCC[C@@H](C)[C@H]1CC[C@H]2[C@@H]3CC=C4C[C@@H](OC(=O)CCC(=O)*)CC[C@]4(C)[C@H]3CC[C@]12C

How the values were obtained:
[1] = tested on: HIV-1 envelope protein (Env); test: Env-mediated cell-cell fusion inhibition (DSP reporter system); conditions: for IC50: read-out: average IC50 value, membrane fusion of 12 viruses, average over Env of 12 representative pandemic HIV-1 strains; for inhibitory activity against membrane fusions of 12 viruses higher than that of the T20: versus T20
[2] = tested on: representative pandemic HIV-1 strain pseudoviruses; conditions: for IC50: representative pandemic strain pseudoviruses, 48 h; for inhibitory activity against 12 pseudoviruses higher than that of the T20: versus T20
N44 = N44 (Human immunodeficiency virus type 1 group M subtype B, UniProt P04578); test: Circular dichroism of lipopeptide complex with target sequence N44; conditions: CD; for Tm value of the mixture with N44: [θ]222, 20-98 °C at 2 °C/min; for α-helix content of the mixture with N44: lipopeptide and N44 each 10 µM in PBS pH 7.2
Sequence of N44 (P04578 538-581): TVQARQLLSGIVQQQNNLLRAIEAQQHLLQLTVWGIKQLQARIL

[3] = tested on: HIV-1 strain JRFL pseudovirus; conditions: for IC50: strain JRFL pseudovirus
[4] = tested on: HIV-1 strain NL4-3 pseudovirus; conditions: for IC50: strain NL4-3 pseudovirus
[5] = tested on: T20-resistant mutant strains (HIV-1 strain NL4-3); conditions: for IC50: T20-resistant mutant strains ( strain NL4-3, 48 h); for inhibitory activity against 12 drug-resistant mutant strains higher than that of the LP-98: versus LP-98
[6] = tested on: HIV-1 strain SG3.1 living virus; conditions: for IC50: strain SG3.1 living virus
[7] = Circular dichroism of lipopeptide alone; type: physicochemical; conditions: CD, 10 µM in PBS pH 7.2
[8] = In vitro cytotoxicity (CCK-8), Hep-2 cells; type: cell-based; conditions: human, CCK-8, 48 hours
Experimental: (§1) The in vitro cytotoxicity was detected by using a CCK-8 cell proliferation/toxicity assay kit (manufacturer: Abbkine, Cat. No.: KTC 011001). […] By using GraphPad Prism software, the inhibition rate curve was fitted and the half-maximal cytotoxic concentration (CC50) of the drug was calculated.

H7N9 = conditions: 48 h
[9] = Temperature stability experiment (antiviral activity after storage); conditions: 300 µM aqueous solution, room temperature or 37 °C, various time periods; NL4-3 pseudovirus, TZM-bl cells
seven test cells = test: In vitro cytotoxicity (CCK-8), average over seven test cells; type: cell-based; conditions: CC50/IC50
Experimental: as §1

[10] = In vitro cytotoxicity (CCK-8), TZM-bl cells; type: cell-based; conditions: human, CCK-8, 48 hours
Experimental: as §1

RABV = conditions: 48 h
MARV = conditions: 48 h
[11] = In vitro cytotoxicity (CCK-8), Huh-7 cells; type: cell-based; conditions: human, CCK-8, 48 hours
Experimental: as §1

VSV = conditions: 48 h
MERS-CoV = conditions: 48 h
[12] = In vitro cytotoxicity (CCK-8), MDCK cells; type: cell-based; conditions: dog, CCK-8, 48 hours
Experimental: as §1

[13] = In vitro cytotoxicity (CCK-8), 293T/ACE2 cells; type: cell-based; conditions: human, CCK-8, 48 hours
Experimental: as §1

[14] = In vitro cytotoxicity (CCK-8), HEK293T cells; type: cell-based; conditions: human, CCK-8, 48 hours
Experimental: as §1

[15] = tested on: replicative HIV-1 strain JR-CSF; conditions: for IC50: replicative strain JR-CSF, 48 h
[16] = Human serum stability experiment (antiviral activity after incubation); conditions: 20% human serum, 37 °C, 0 to 240 minutes; NL4-3 pseudovirus, TZM-bl cells
EBOV = conditions: 48 h
[17] = tested on: protease K, trypsin, or α-chymotrypsin
[18] = In vitro cytotoxicity (CCK-8), MT-4 cells; type: cell-based; conditions: human, CCK-8, 48 hours
Experimental: as §1

[19] = LP-124 versus LP-122, LP-125 versus LP-123

| Compound | IC50 [1] | inhibitory activity against membrane fusions of 12 viruses higher than that of the T20 [1] | IC50 [2] | inhibitory activity against 12 pseudoviruses higher than that of the T20 [2] | Tm value of the mixture with N44 (N44) | α-helix content of the mixture with N44 (N44) | IC50 [3] | IC50 [4] | IC50 [5] | inhibitory activity against 12 drug-resistant mutant strains higher than that of the LP-98 [5] | IC50 [6] | α-helix content, lipopeptide alone [7] | IC50 [15] | other results |
| --- | --- | --- | --- | --- | --- | --- | --- | --- | --- | --- | --- | --- | --- | --- |
| CC[C@H](C)[C@H](NC(=O)[C@H](CCCCN)NC(=O)[C@H](CCCCN)NC(=O)[C@H](CCC(=O)O)NC(=O)[C@H](Cc1c[nH]c2ccccc12)NC(=O)[C@H](CCC(=O)O)NC(=O)[C@H](CCC(=O)O)NC(=O)[C@H](Cc1c[nH]c2ccccc12)NC(=O)[C@@H](NC(C)=O)[C@@H](C)O)C(=O)N[C@@H](CCC(=O)O)C(=O)N[C@@H](CCC(=O)O)C(=O)N[C@@H](CC(C)C)C(=O)N[C@@H](CCC(=O)O)C(=O)N[C@@H](CCCCN)C(=O)N[C@@H](CCCCN)C(=O)N[C@H](C(=O)N[C@@H](CCC(=O)O)C(=O)N[C@@H](CCC(=O)O)C(=O)N[C@@H](CC(C)C)C(=O)N[C@@H](CC(C)C)C(=O)N[C@@H](CCCCN)C(=O)N[C@@H](CCCCN)C(=O)N[C@@H](C)C(=O)N[C@@H](CCC(=O)O)C(=O)N[C@@H](CCC(=O)O)C(=O)N[C@@H](CCC(N)=O)C(=O)N[C@@H](CCC(N)=O)C(=O)N[C@@H](CCCCN)C(=O)N[C@@H](CCCCN)C(=O)N[C@@H](CC(N)=O)C(=O)N[C@@H](CCC(=O)O)C(=O)N[C@@H](C)C(=O)N[C@@H](C)C(=O)N[C@@H](C)C(=O)N[C@@H](CCCCN)C(=O)N[C@@H](CCCCNC(=O)CCC(=O)O[C@H]1CC[C@@]2(C)C(=CC[C@H]3[C@@H]4CC[C@H]([C@H](C)CCCC(C)C)[C@@]4(C)CC[C@@H]32)C1)C(N)=O)[C@@H](C)CC [LP-123] (Ac-TWEEWEKKIEELEKKIEELLKKAEEQQKKNEAAAKK(Succinyl(4-O-cholesteryl))-NH2) | 0.024 nM | 466 folds | 0.0274 nM | 732 folds | > 98 °C | 79% | 0.0146 nM | 0.0181 nM | 0.0555 nM | 48 folds | 0.00368 nM | 56% |  |  |
| CC[C@H](C)[C@H](NC(=O)[C@H](CCCCN)NC(=O)[C@H](CCCCN)NC(=O)[C@H](CCC(=O)O)NC(=O)[C@H](Cc1ccc(O)cc1)NC(=O)[C@H](CCC(=O)O)NC(=O)[C@H](CCC(=O)O)NC(=O)[C@H](Cc1ccc(O)cc1)NC(=O)[C@@H](NC(C)=O)[C@@H](C)O)C(=O)N[C@@H](CCC(=O)O)C(=O)N[C@@H](CCC(=O)O)C(=O)N[C@@H](CC(C)C)C(=O)N[C@@H](CCC(=O)O)C(=O)N[C@@H](CCCCN)C(=O)N[C@@H](CCCCN)C(=O)N[C@H](C(=O)N[C@@H](CCC(=O)O)C(=O)N[C@@H](CCC(=O)O)C(=O)N[C@@H](CC(C)C)C(=O)N[C@@H](CC(C)C)C(=O)N[C@@H](CCCCN)C(=O)N[C@@H](CCCCN)C(=O)N[C@@H](C)C(=O)N[C@@H](CCC(=O)O)C(=O)N[C@@H](CCC(=O)O)C(=O)N[C@@H](CCC(N)=O)C(=O)N[C@@H](CCC(N)=O)C(=O)N[C@@H](CCCCN)C(=O)N[C@@H](CCCCN)C(=O)N[C@@H](CC(N)=O)C(=O)N[C@@H](CCC(=O)O)C(=O)N[C@@H](C)C(=O)N[C@@H](C)C(=O)N[C@@H](C)C(=O)N[C@@H](CCCCN)C(=O)N[C@@H](CCCCNC(=O)CCC(=O)O[C@H]1CC[C@@]2(C)C(=CC[C@H]3[C@@H]4CC[C@H]([C@H](C)CCCC(C)C)[C@@]4(C)CC[C@@H]32)C1)C(N)=O)[C@@H](C)CC [LP-125] (Ac-TYEEYEKKIEELEKKIEELLKKAEEQQKKNEAAAKK(Succinyl(4-O-cholesteryl))-NH2) | 0.0119 nM | 942 folds | 0.00422 nM | 4752 folds | 91 °C | 89% | 0.00578 nM | 0.00343 nM | 0.00629 nM | 423 folds | 0.00111 nM | 78% |  | activity increased as compared to its template, JRFL pseudovirus [3, 19]: ~3 folds; activity increased as compared to its template, NL4-3 pseudovirus [4, 19]: about 5 folds; activity increased as compared to its template, SG3.1 living virus [6, 19]: ~3 folds |
| CC[C@H](C)[C@H](NC(=O)[C@H](CCCCN)NC(=O)[C@H](CCCCN)NC(=O)[C@H](CCC(=O)O)NC(=O)[C@H](CC(C)C)NC(=O)[C@H](CCC(=O)O)NC(=O)[C@H](CCC(=O)O)NC(=O)[C@H](CC(C)C)NC(=O)[C@H](CCC(=O)O)NC(=O)[C@H](CCCCN)NC(=O)[C@H](CCC(=O)O)NC(=O)[C@H](Cc1ccc(O)cc1)NC(=O)[C@H](CCC(=O)O)NC(=O)[C@H](CCC(=O)O)NC(=O)[C@H](Cc1ccc(O)cc1)NC(=O)[C@H](CCC(=O)O)NC(C)=O)C(=O)N[C@@H](CCC(=O)O)C(=O)N[C@@H](CCC(=O)O)C(=O)N[C@@H](CC(C)C)C(=O)N[C@@H](CC(C)C)C(=O)N[C@@H](CCCCN)C(=O)N[C@@H](CCCCN)C(=O)N[C@@H](C)C(=O)N[C@@H](CCC(=O)O)C(=O)N[C@@H](CCC(=O)O)C(=O)N[C@@H](CCC(N)=O)C(=O)N[C@@H](CCC(N)=O)C(=O)N[C@@H](CCCCN)C(=O)N[C@@H](CCCCN)C(=O)N[C@@H](CC(N)=O)C(=O)N[C@@H](CCC(=O)O)C(=O)N[C@@H](C)C(=O)N[C@@H](C)C(=O)N[C@@H](C)C(=O)N[C@@H](CCCCN)C(=O)N[C@@H](CCCCNC(=O)CCC(=O)O[C@H]1CC[C@@]2(C)C(=CC[C@H]3[C@@H]4CC[C@H]([C@H](C)CCCC(C)C)[C@@]4(C)CC[C@@H]32)C1)C(N)=O [LP-127] (Ac-EYEEYEKELEELEKKIEELLKKAEEQQKKNEAAAKK(Succinyl(4-O-cholesteryl))-NH2) | 0.00497 nM | 2256 folds | 0.00489 nM | 4101 folds | 92 °C | 68% | 0.00563 nM | 0.00501 nM | 0.00702 nM | 379 folds |  | 57% | 0.0104 nM | CC50 at 48 h [8]: 16500 nM; IC50 (H7N9): 415 nM; change in antiviral activity after treatment at different temperatures [9]: no significant change; therapeutic selective index (SI) (seven test cells): very high; CC50 at 48 h [10]: 10200 nM; IC50 (RABV): 1730 nM; IC50 (MARV): 144 nM; CC50 at 48 h [11]: 31300 nM; IC50 (VSV): 1510 nM; IC50 (MERS-CoV): 383 nM; CC50 at 48 h [12]: 12900 nM; CC50 at 48 h [13]: 14400 nM; CC50 at 48 h [14]: 9070 nM; inhibitory activity higher than the T20, JR-CSF ([15]; TZM-bl cells, versus T20): 539 folds; change in antiviral activity after treatment with human serum [16]: no significant change; IC50 (EBOV): 61.7 nM; inhibitory activity higher than that of the T20, SG3.1 ([6]; TZM-bl cells, versus T20): 1427 folds; change in antiviral activity after treatment with three proteases [17]: no significant change; CC50 at 48 h [18]: 15400 nM |
| Enfuvirtide | 11.2 nM |  | 20.1 nM |  |  |  |  |  |  |  | 2.91 nM |  | 5.6 nM |  |
